Read-outs that look alike come from different tables or passages of the source.
What was measured:
[1] = 5 µM
Description: (§1) 50 uL aliquots of positive controls and test compounds spiked into rat or human plasma (n=2) were added to a pre-warmed plate (37° C.) and shaken at 50 rpm. At each respective time point, the reaction was stopped by adding 500 μL of acetonitrile containing internal standards (100 nM aprozolam, 200 nM caffeine, 100 nM tolbutamide). All samples were vortexed for 10 minutes, followed by centrifugation at 3,220 g for 30 minutes to precipitate proteins. 100 μL of the supernatant is transferred to a new plate. The supernatant will be diluted with ultrapure water according to the LC-MS signal response and peak shape.

[2] = 5 µM; remark: listed apart in the source
Description: as §1

[3] = Hydrolysis Assay of Example A2, Condition 1 (SGF with pepsin, pH 1.5, 37° C.); type: physicochemical; details: SGF with pepsin pH 1.5, 37° C.; for Condition 1 Conversion (%): 0.5 mM; for Condition 1 Conversion (%), second value of a/b: value after the slash

Molecule	Rat Plasma Prodrug (%) ([1]; 0 min)	Rat Plasma Prodrug (%) ([1]; 10 min)	Rat Plasma Prodrug (%) ([1]; 30 min)	Rat Plasma Prodrug (%) ([1]; 60 min)	Rat Plasma Prodrug (%) ([1]; 120 min)	Rat Plasma Prodrug (%) ([1]; 240 min)	Human Plasma Prodrug (%) ([2]; 0 min)	Human Plasma Prodrug (%) ([2]; 10 min)	Human Plasma Prodrug (%) ([2]; 30 min)	Human Plasma Prodrug (%) ([2]; 60 min)	Human Plasma Prodrug (%) ([2]; 120 min)	Human Plasma Prodrug (%) ([2]; 240 min)	further results
CCCC(CCC)C(=O)OC1=C[C@@H]2N(C)CC[C@]2(c2ccc(OC)c(OC)c2)CC1 [Compound 427, (3aS,7aS)-3a-(3,4-dimethoxyphenyl)-1-methyl-2,3,3a,4,5,7a-hexahydro-1H-indol-6-yl 2-propylpentanoate]	100.0	93.6	73.4	43.9	16.0	2.3	100.0	>99	96.6	96.9	95.5	91.2	
CCC(C)C(=O)OC1=C[C@@H]2N(C)CC[C@]2(c2ccc(OC)c(OC)c2)CC1 (stereo partly drawn) [Compound 425, (3aS,7aS)-3a-(3,4-dimethoxyphenyl)-1-methyl-2,3,3a,4,5,7a-hexahydro-1H-indol-6-yl 2-methylbutanoate]	100.0	4.4	0.1	0.0	0.0	0.0	100.0	6.5	4.8	4.0	3.0	1.9	
CCCC(C)(C)C(=O)OC1=C[C@@H]2N(C)CC[C@]2(c2ccc(OC)c(OC)c2)CC1 [Compound 429, (3aS,7aS)-3a-(3,4-dimethoxyphenyl)-1-methyl-2,3,3a,4,5,7a-hexahydro-1H-indol-6-yl 2,2-dimethylpentanoate]	100.0	90.4	83.9	71.9	50.8	26.2	100.0	>99	96.3	95.3	91.8	84.6	
COCCOCCC(=O)OC1=C[C@@H]2N(C)CC[C@]2(c2ccc(OC)c(OC)c2)CC1 [Compound 405, (3aS,7aS)-3a-(3,4-dimethoxyphenyl)-1-methyl-2,3,3a,4,5,7a-hexahydro-1H-indol-6-yl 3-(2-methoxyethoxy)propanoate]	100.0	0.1	0.0	0.1	0.0	0.0	100.0	>99	95.0	87.0	65.7	46.7	
COc1ccc([C@@]23CCC(OC(=O)CC(C)(C)C)=C[C@@H]2N(C)CC3)cc1OC [Compound 431, (3aS,7aS)-3a-(3,4-dimethoxyphenyl)-1-methyl-2,3,3a,4,5,7a-hexahydro-1H-indol-6-yl 3,3-dimethylbutanoate]	100.0	74.5	45.7	16.5	2.3	0.2	100.0	82.1	69.0	62.8	52.6	37.4	
COc1ccc([C@@]23CCC(OC(=O)CCC(C)C)=C[C@@H]2N(C)CC3)cc1OC [Compound 399, (3aS,7aS)-3a-(3,4-dimethoxyphenyl)-1-methyl-2,3,3a,4,5,7a-hexahydro-1H-indol-6-yl 4-methylpentanoate]	100.0	0.0	0.0	0.0	0.0	0.0	100.0	5.6	1.1	0.5	0.3	0.2	
CCCCCC(C)C(=O)OC1=C[C@@H]2N(C)CC[C@]2(c2ccc(OC)c(OC)c2)CC1 (stereo partly drawn) [Compound 400, (3aS,7aS)-3a-(3,4-dimethoxyphenyl)-1-methyl-2,3,3a,4,5,7a-hexahydro-1H-indol-6-yl 2-methylheptanoate]	100.0	12.6	0.6	0.1	0.1	0.0	100.0	34.7	11.6	5.2	2.3	1.9	
COCCCCC(=O)OC1=C[C@@H]2N(C)CC[C@]2(c2ccc(OC)c(OC)c2)CC1 [Compound 404, (3aS,7aS)-3a-(3,4-dimethoxyphenyl)-1-methyl-2,3,3a,4,5,7a-hexahydro-1H-indol-6-yl 5-methoxypentanoate]	100.0	0.3	0.3	0.3	0.3	0.2	100.0	22.9	11.5	7.6	3.8	1.6	
CCCCC(CC)C(=O)OC1=C[C@@H]2N(C)CC[C@]2(c2ccc(OC)c(OC)c2)CC1 (stereo partly drawn) [Compound 401, (3aS,7aS)-3a-(3,4-dimethoxyphenyl)-1-methyl-2,3,3a,4,5,7a-hexahydro-1H-indol-6-yl 2-ethylhexanoate]	100.0	84.5	55.8	33.8	16.3	3.3	100.0	95.9	>99	96.6	94.4	93.4	
CCCC(CC)CC(=O)OC1=C[C@@H]2N(C)CC[C@]2(c2ccc(OC)c(OC)c2)CC1 (stereo partly drawn) [Compound 398, (3aS,7aS)-3a-(3,4-dimethoxyphenyl)-1-methyl-2,3,3a,4,5,7a-hexahydro-1H-indol-6-yl 3-ethylhexanoate]	100.0	2.8	0.7	0.1	0.0	0.0	100.0	96.4	85.0	72.4	51.6	25.5	
COc1ccc([C@@]23CCC(OC(=O)c4c(C)cc(C)cc4C)=C[C@@H]2N(C)CC3)cc1OC [Compound 356, (3aS,7aS)-3a-(3,4-dimethoxyphenyl)-1-methyl-2,3,3a,4,5,7a-hexahydro-1H-indol-6-yl 2,4,6-trimethylbenzoate]	100.0	>99	>99	>99	>99	95.8	100.0	>99	>99	>99	>99	>99	
COc1ccc([C@@]23CC/C(=N\OC(C)(C)OC)C[C@@H]2N(C)CC3)cc1OC [Compound 204, (E,3aS,7aS)-3a-(3,4-dimethoxyphenyl)-N-(1-methoxy-1-methyl-ethoxy)-1-methyl-2,3,4,5,7,7a-hexahydroindol-6-imine]													Condition 1 Conversion (%) ([3]; time 1 min): 100%; Condition 1 Conversion (%) ([3]; time 5 min): 100%; Condition 1 Conversion (%) ([3]; time 30 min): 0%; Condition 1 Conversion (%) ([3]; time 1 h): 0%; Condition 1 Conversion (%) ([3]; time 4 h): 0%; Condition 1 Conversion (%) ([3]; time 24 h): 0%; Condition 1 Conversion (%), second value of a/b ([3]; time 1 min): 0%; Condition 1 Conversion (%), second value of a/b ([3]; time 5 min): 0%; Condition 1 Conversion (%), second value of a/b ([3]; time 30 min): 100%; Condition 1 Conversion (%), second value of a/b ([3]; time 1 h): 100%; Condition 1 Conversion (%), second value of a/b ([3]; time 4 h): 100%; Condition 1 Conversion (%), second value of a/b ([3]; time 24 h): 100%
N-[[(3aS,7aS)-3a-(3,4-dimethoxyphenyl)-1-methyl-3,4,7,7a-tetrahydro-2H-indol-6-yl]3,4-dimethoxybenzoate [Compound 302]													Condition 1 Conversion (%) ([3]; time 1 min): 0%; Condition 1 Conversion (%) ([3]; time 5 min): 0%; Condition 1 Conversion (%) ([3]; time 30 min): 0%; Condition 1 Conversion (%) ([3]; time 1 h): 0%; Condition 1 Conversion (%) ([3]; time 4 h): 0%; Condition 1 Conversion (%) ([3]; time 24 h): 0%

Reference: patent US12269800B2, “Delivery of therapeutic alkaloid compounds” (priority 2021, dated 2025)
